Test results taken from patent US20100324150A1, “HYPERBRANCHED POLYGLYCEROL FOR IMPROVING HEART FUNCTION” (THE UNIVERSITY OF BRITISH COLUMBIA, priority 2007, published 2010).

Columns and labels:
H9C2 cells = experiment: Lactate production by H9C2 cells; type: cell-based, rat; conditions: for Lactate concentration / production in H9C2 cells (in words): relative to control
Experimental: H9C2 (2-1) embryonic rat heart cells (passage 12, obtained from American Type Culture Collection, Manassas, Va.) were cultured in Dulbecco's modified Eagle's medium (DMEM—Gibco-Invitrogen) containing 10% fetal bovine serum (FBS) and 100 U/ml penicillin-streptomycin at 37° C. in a humidified atmosphere containing 5% CO2. The cells were subcultured into 60 mm culture dishes when 80% confluent (before fusion into myotubes occurred) and were differentiated toward a cardiac phenotype by exposure to DMEM containing 1% horse serum and 0.1 μM all-trans retinoic acid (Sigma) for four days (Menard et al 1999. J Biol Chem 274:29063-70; Bronstrom et al 2000. Int J. Biochem Cell Biol 32:993-1006). Retinoic acid was prepared in the dark in DMSO and stored at −20° C. The concentration of DMSO in the culture media was less than 0.2%. Media was changed daily.
To screen for metabolic actions of dHPGs, H9C2 cells were exposed to a range of dHPG concentration (0.001 to 100 μM). Studies were conducted over six hours in serum-free Krebs-Henseleit (KH) solution (118 mM NaCl, 4.7 mM KCl, 1.2 mM KH2PO4, 1.2 mM MgSO4, 2.0 mM CaCl2, 25 mM NaHCO3, 0.4 mM Na2CO3) containing 0.4 mM palmitate (bound to fatty-acid free albumin), 5.5 mM glucose and 20 mU/L insulin. Aliquots of media (60 μl) were taken at 3 and 6 hours. Viability of cells was assessed by visual inspection of cell morphology using a microscope and by assessment of mitochondrial integrity (MTS—Promega). Accumulation of lactate in the bathing solution over 6 hrs was measured using a diagnostic kit (Sigma, St. Louis, Mo.). Lactate accumulation was expressed as μmol/mg protein. Protein content of the cultures was determined using a commercial Bicinchoninic Acid (BCA) protein assay kit from Sigma (St. Louis, Mo.). Pharmacological agents used as controls included Dicholoracetate (DCA), which directly stimulates glucose oxidation by activating pyruvate dehydrogenase and causes a reduction in lactate.
A variety of dHPG polymers were administered to H9C2 cells in culture and the lactate production analyzed (Tables 2, 3; FIGS. 1a, b). […] Concentration range data (0.0001 to 250.0 uM), as well as controls (dichloroacetate-7.5 mM, DCA-BDH), a group exposed to oxfenicine (2 mM, OXF-Fluka), and a group exposed to oligomycin (2.0 μM, Oligo-Sigma).

[1] = system: isolated working rat hearts; experiment: Isolated working rat hearts, normoxic non-ischemic perfusion
Experimental: Hearts from halothane (3-4%)-anesthetized male Sprague-Dawley rats were isolated and perfused as working preparations with Krebs-Henseleit (KH) solution at a left atrial preload of 11.5 mmHg and an aortic afterload of 80 mmHg in a closed recirculating system with oxygenated (95% O2-5% CO2) Krebs-Henseleit (KH) solution maintained at 37° C., as described (Burelle et al 2004. Am J Physiol Heart Circ Physiol 287:H1055-63; Allard et al 1994. Am J Physiol 267:H742-H750; Saeedi et al 2006. BMC Cardiovasc Disord 6:8). A first series of hearts was perfused with KH solution containing 0.6 or 1.2 mM [1-^14C]- or [9,10-^3H]-palmitate, prebound to fatty acid-free albumin (3%), together with 5.5 mM glucose, 0.5 mM lactate, and 20 mU/l insulin in order to measure rates of palmitate oxidation. A second series of hearts was perfused with KH solution containing 0.6 or 1.2 mM palmitate, 5.5 mM [5-^3H/U-^14C]-glucose, 0.5 mM lactate, and 20 mU/l insulin in order to measure glycolysis and glucose oxidation. Concentrations of insulin and substrates reflect values seen under physiologic and pathophysiologic conditions. […]
Heart rate and systolic pressure may be measured using a pressure transducer (Viggo-Spectramed, Oxnard, Calif.) inserted in the afterload line of the isolated heart. Cardiac output and aortic flow may be measured via external flow probes (Transonic Systems, Ithaca, N.Y.) on the left atrial preload and aortic afterload lines, respectively. External work performed by the heart is expressed as, “rate-pressure product”, the product of heart rate and peak systolic pressure, and “hydraulic work”, the product of cardiac output and peak systolic pressure. […]
Isolated, working rat hearts were exposed to 10 μM dHPG-85K-G71.4-C181.9-PEG26.7(RKK-108) and studied under normoxic, non-ischemic conditions. During normoxic, non-ischemic perfusion, RKK108 improves heart function (rate-pressure assessment—beats per minute×mmHg/1000) by about 10 to about 15% (FIG. 2), When heart function is assessed by hydraulic work an improvement of about 20% is also observed.

| Compound | Lactate Production by H9C2 Cells (H9C2 cells; 2 mM) [% Control] | Lactate concentration / production in H9C2 cells (in words) (H9C2 cells) | Glycolysis [1] | Glucose oxidation ([1]; RKK108 10 μM) | Palmitate oxidation ([1]; RKK108 10 μM) | Lactate Production by H9C2 Cells (H9C2 cells; 7.5 mM) [% Control] | Lactate Production by H9C2 Cells (H9C2 cells; 2 μM) [% Control] |
| --- | --- | --- | --- | --- | --- | --- | --- |
| N[C@H](C(=O)O)c1ccc(O)cc1 [Oxfenicine] | 130 ± 7 | increase in lactate | accelerates both glucose oxidation and glycolysis | accelerates both glucose oxidation and glycolysis | reduces palmitate oxidation | – | – |
| O=C(O)C(Cl)Cl [DCA, dichloroacetate] | – | – | – | – | – | 63 ± 5 | – |
| CC[C@H]1/C=C/C=C/C[C@@H](C)[C@H](O)[C@@](C)(O)C(=O)[C@@H](C)[C@H](O)[C@@H](C)C(=O)[C@@H](C)[C@H](O)[C@@H](C)/C=C/C(=O)O[C@@H]2[C@H](C)[C@H](CC1)O[C@]1(CC[C@H](C)[C@H](C[C@@H](C)O)O1)[C@H]2C [Oligomycin] | – | increase in lactate concentration, greater than that of OXF-treated samples | – | – | – | – | 226 ± 10 |
